Experiments:
Format in all cases: functional
[1] = test system: Radical scavenging activity; assay: Antioxidant activity assessed as DPPH free radical scavenging activity after 30 mins
[2] = test system: SF-268; assay: Cytotoxicity against human SF268 cells at 58 uM
[3] = test system: NCI-H460; assay: Cytotoxicity against human NCI-H460 cells at 58 uM

Row | Molecule | IC50 [1] [µM] | inhibition at 58 µM [2] [%] | inhibition at 58 µM [3] [%]
1 | C[C@H]1OC(=O)[C@@H](O)[C@@H]1OC(=O)/C=C/c1ccc(O)c(O)c1 | 290 | – | –
2 | COc1cc(-c2cc(=O)c3c(O)cc(O)cc3o2)cc(OC)c1OC | – | 61 | 89
3 | VITAMIN E | 350 | – | –

The remaining molecules from weak to strong by IC50 [1], led by results:

Row | IC50 [1] [µM] | Molecule | inhibition at 58 µM [2] [%] | inhibition at 58 µM [3] [%]
4 | 234 | CCOC(=O)[C@]1(O)C[C@@H](O)[C@H](OC(=O)/C=C/c2ccc(O)c(O)c2)[C@H](O)C1 | – | –
5 | 91 | O=C(/C=C/c1ccc(O)c(O)c1)OC[C@H](O)[C@H]1OC(=O)[C@H](O)[C@H]1O | – | –
